Data taken from patent publication US20240299446A1 (priority 2023, published 2024).
“Also recorded” adds a separate entry of the source. Marks after values point to notes of the source that are not given here.

Legend:
[1] = system: ovariectomy (OVX) rats; experiment: Femur bone mineral density (DEXA), breaking force and mineral content in ovariectomized rats; assay type: in vivo, Sprague-Dawley rats; settings: for BMD: femur
Protocol: Using dual energy X-ray absorptionmetry (DEXA; Prodigy Advance, Donga imaging, Korea), the bone mineral density (BMD) of the femur was measured. Immediately after BMD measurement, the femur was subjected to mechanical test at room temperature using a material testing machine (MZ500D; Maruto, Tokyo, Japan). For stabilization, the mid-diaphysis of the thigh was placed on two supports at an interval of 4 mm on a test device. A three-point bending test was performed in front and rear directions at the midpoint between the two supports. Breaking force was measured using software (CTR win, Ver. 1.05) to measure bone strength. […] Then, the thigh was placed at 800° C. for 16 hours, and the weight of the ash was measured. […] Calcium and phosphorus contents were measured using an atomic absorption spectrophotometer (PerkinElmer; A Analyst 100 Spectrophotometer, Boston, USA).

[2] = system: ovariectomy (OVX) rats; experiment: Blood markers  (17β-estradiol, osteocalcin, CTx) in ovariectomized rats; assay type: in vivo, Sprague-Dawley rats; settings: for blood 17β-estradiol reduction by ovariectomy: OVX rats; for Estradiol: serum 17β-estradiol, 12 weeks after ovariectomy, mean ± SD, 5 rats
[3] = system: ovariectomy (OVX) rats; experiment: Hematological analysis in ovariectomized rats; assay type: in vivo, Sprague-Dawley rats
Protocol: Blood samples were collected at 12 weeks post-surgery.
Hematological experiments were performed using T-540 Coulter Counter (Coulter Electronics Inc., Hialeah, USA) and ADVIA 120 Hematology System (Bayer Healthcare LLC, Tarrytown, USA). White blood cells (WBCs), differential leukocyte counts, hematocrit, red blood cells (RBCs), mean corpuscular volume (MCV), mean corpuscular hemoglobin (MCH), mean corpuscular hemoglobin concentration (MCHC), and platelet count were subjected to analysis, respectively.

[4] = system: ovariectomy (OVX) rats; experiment: Change in weight of organs in ovariectomized rats; assay type: in vivo, Sprague-Dawley rats
Protocol: 12 week old female SPF Sprague-Dawley rats (body weight: 250 g; n=15) were purchased from the Korean Laboratory Animals Center (Eumseong, South Korea). Breeding conditions were as follows: temperature, 23+3° C.; relative humidity, 55+10%; lighting time, 12 hours (08:00-20:00); ventilation frequency, 10-20 changes/h; illumination, 150-300 lux. The temperature and humidity were measured using a hygrometer in units of time, and there were no variables that could affect the experimental results. The animals were fed normal rodent feed and purified water.
The experimental animals were randomly divided into three groups. After adaptation, bilateral laparotomy (sham) or bilateral ovariectomy (OVX) was performed on the rats.
Changes in the body weight and feeding and water intake were measured at a regular interval.

[5] = system: ovariectomy (OVX) rats; experiment: Blood markers  (17β-estradiol, osteocalcin, CTx) in ovariectomized rats; assay type: in vivo, Sprague-Dawley rats; settings: for C-terminal telopeptide: serum CTx
Protocol: Osteocalcin levels were measured using a sandwich ELISA kit (Biomedical Technologies Inc., Stoughton, USA), while CTx levels were measured using a serum RatLaps ELISA kit (IDS Inc., Fountain Hills, USA).

[6] = system: ovariectomy (OVX) rats; experiment: Blood biochemical analysis in ovariectomized rats; settings: for bone growth marker ALP: OVX rats, serum
Protocol: Blood samples were collected at 12 weeks post-surgery. Animals were deprived of food for 16 hours and then anesthetized prior to blood sampling (Zoletile 50, Virbac, Korea). 0.5 mL of blood was collected from the abdominal artery and stored at 4° C. in a refrigerator.
A portion of the blood was used for hematological experiments, and the remaining blood was centrifuged at 3,000 rpm for 10 minutes to obtain serum. The serum was used for blood biochemical experiments and bone metabolism markers 17β-estradiol, osteocalcin and CTx analysis.
The parameters measured for blood biochemical analysis (Ciba-Corning 644 Na/K/Cl Analyzer, Ciba-Corning, Medfield, USA) were as follows: alanine aminotransferase (ALT), aspartate aminotransferase (AST), alkaline phosphatase (ALP), blood urea nitrogen (BUN), glucose, triglycerides (TG), total cholesterol (TC), high-density lipoproteins (HDL), low-density lipoproteins (LDL), total proteins (TP), albumin, calcium and phosphorus.

[7] = system: human colo 205 rectal cancer cells; experiment: Rectal cancer animal experiment, Colo205 xenograft model; assay type: in vivo; settings: for MTV (n) Day 28: median tumor volume; for Deaths NTR: non-treatment-related deaths; for % TGI: percent tumor growth inhibition compared to Group 1 (vehicle), Day 28, 0.83 mg/kg po; for Deaths TR: treatment-related deaths
Protocol: Using human colo 205 rectal cancer cells as xenograft model, clinical experiments were performed with adenocarcinoma nude mice for 28 days. In this regard, the experimental method and usage are shown in Table 8 (Protocol Design for the Colo205-e347 Study) and Table 9 (Final treatment regimen at completion of the study) below.

[8] = system: multiple myeloma (MM); experiment: Multiple myeloma animal experiment; assay type: in vivo, 5TGM1-grafted NSG mice
[9] = femur ash, reduced by ovariectomy
[10] = DEXA, treatment for 12 weeks after ovariectomy, mean ± SD, 5 rats
[11] = blood at 12 weeks post-surgery, mean ± SD, 5 rats
[12] = OVX rats, treatment for 12 weeks after ovariectomy, mean ± SD, 5 rats
[13] = OVX rats, increased after ovariectomy
[14] = 12 weeks after ovariectomy, mean ± SD, 5 rats
[15] = serum, 12 weeks after ovariectomy, mean ± SD, 5 rats
[16] = serum at 12 weeks post-surgery, mean ± SD, 5 rats

For “Sigma Anti-bonding Molecule Calcium Carbonate [SAC, reference compound]”, the “calcium” value [1, 9] was “not significantly different from the Sham group”, the BMD [1, 10] was 0.228 ± 0.012 g/cm² and the “blood 17β-estradiol reduction by ovariectomy” value [2] was “quite recovered”. The Estradiol [2] was 4.217 ± 0.247^a pg/ml, the Basophils [3, 11] was 0.02 ± 0.04 9% and the Eosinophils [3, 11] was 5.04 ± 3.88%. The Hematocrit [3, 11] was 43.94 ± 2.18%, the Lymphocytes [3, 11] was 70.36 ± 8.78% and the Mean corpuscular hemoglobin [3, 11] was 30.50 ± 0.75 pg. The “Mean corpuscular hemoglobin concentration” value [3, 11] was 57.14 ± 0.76 g/dL, the Mean corpuscular volume [3, 11] was 53.44 ± 1.24 fL and the Monocytes [3, 11] was 2.50 ± 1.44%. For the same substance, the Neutrophils [3, 11] was 21.21 ± 6.19%, the Platelet [3, 11] was 1297.0 ± 91.27 10^3/mm^3 and the Red blood cell [3, 11] was 8.23 ± 0.55 10^6/µL. For the same substance, the White blood cell [3, 11] was 4.84 ± 1.17 10^3/μl, the “Adrenal gland Left weight” value [4, 12] was 0.0094 ± 0.0014 g and the “Adrenal gland Right weight” value [4, 12] was 0.0094 ± 0.0014 g. The Body weight [4, 12] was 371.36 ± 9.97 g, the Brain weight [4, 12] was 0.5526 ± 0.02 and the “Femur Left weight” value [4, 12] was 0.2935 ± 0.02 g. For the same substance, the “Femur Right weight” value [4, 12] was 0.2902 ± 0.02 g, the “Kidney: Left weight” value [4, 12] was 0.2687 ± 0.01 g and the “Kidney: Right weight” value [4, 12] was 0.2626 ± 0.02 g. The Liver weight [4, 12] was 2.1820 ± 0.15 g, the Pituitary weight [4, 12] was 4.2 ± 1 mg and the Spleen weight [4, 12] was 0.1856 ± 0.02 g. The Uterus weight [4, 12] was 0.0444 ± 0.02 g, the Vagina weight [4, 12] was 0.0575 ± 0.02 g and the “C-terminal telopeptide / CTx” value [5, 13] was “quite reduced”. The “osteocalcin” value [5, 13] was “considerably reduced”, the C-terminal telopeptide [5, 14] was 4.360 ± 0.495^a ng/ml and the osteocalcin [5, 15] was 3.558 ± 0.154^ac ng/mL. The “bone growth marker ALP” value [6] was “recovered to a normal level”, the ALP [6, 16] was 108.2 ± 20.7 IU/l and the Albumin [6, 16] was 2.7 ± 0.1 g/dL. For the same substance, the BUN [6, 16] was 9.2 ± 2.4 mg/dL, the GOT [6, 16] was 148.0 ± 30.4 IU/l and the GPT [6, 16] was 22.4 ± 4.0 IU/l. For the same substance, the Glucose [6, 16] was 112.4 ± 7.7 mg/dL, the HDL [6, 16] was 23.8 ± 5.2 mg/dL and the LDL-C [6, 16] was 8.0 ± 5.2 mg/dL. It also gave a Phosphorus [6, 16] of 4.1 ± 0.6 mg/dL, a TC [6, 16] of 73.0 ± 17.3 mg/dL and a TG [6, 16] of 20.6 ± 7.7 mg/dL. For the same substance, the TP [6, 16] was 4.7 ± 0.2, the calcium [6, 16] was 6.7 ± 0.4 mg/dL and the “Mean BW Nadir” value ([7]; lowest group mean body weight as % change from Day 1, — indicates no decrease in mean body weight was observed) was −0.4% Day 2. The “MTV (n) Day 28” value ([7]; 0.83 mg/kg po) was 896 (9) mm^3, the “Deaths NTR” value ([7]; 0.83 mg/kg po) was 1 and the “Regressions CR” value ([7]; number of complete regressions, 0.83 mg/kg po) was 0. For the same substance, the “Regressions PR” value ([7]; number of partial regressions, 0.83 mg/kg po) was 0, the “% TGI” value [7] was 4% and the “Deaths TR” value ([7]; 0.83 mg/kg po) was 0. For the same substance, the “Regressions TFS” value ([7]; tumor free survivors at end of study, 0.83 mg/kg po) was 0.

In the case of “Sigma Anti-bonding Molecule Calcium gluconate [SAC gluconate]”, the “Phosphorus” value [1, 9] is reported as “completely recovered”, the “calcium” value [1, 9] is reported as “completely recovered” and the BMD [1, 10] is reported as 0.238 ± 0.011 g/cm². For the same substance, the “BMD” value ([1]; reduced by ovariectomy) was “completely recovered; also recorded: improved BMD”, the “femoral breaking force” value ([1]; three-point bending test, reduced by ovariectomy) was “completely recovered” and the “blood 17β-estradiol reduction by ovariectomy” value [2] was “quite recovered”. The Estradiol [2] was 4.417 ± 0.347^a pg/ml, the “Eosinophils” value ([3]; after ovariectomy) was “significantly increased” and the Basophils [3, 11] was 0.03 ± 0.04 9%. For the same substance, the Eosinophils [3, 11] was 5.06 ± 2.88%, the Hematocrit [3, 11] was 44.94 ± 1.18% and the Lymphocytes [3, 11] was 73.36 ± 3.78%. The Mean corpuscular hemoglobin [3, 11] was 32.50 ± 1.75 pg, the “Mean corpuscular hemoglobin concentration” value [3, 11] was 57.54 ± 1.76 g/dL and the Mean corpuscular volume [3, 11] was 54.44 ± 1.24 fL. The Monocytes [3, 11] was 2.60 ± 1.04%, the Neutrophils [3, 11] was 22.21 ± 5.19% and the Platelet [3, 11] was 1397.0 ± 81.27 10^3/mm^3. The Red blood cell [3, 11] was 8.33 ± 0.45 10^6/µL, the White blood cell [3, 11] was 4.94 ± 2.17 10^3/μl and the “weights of the organs” value ([4]; OVX rats) was “does not significantly affect the weights of the organs”. For the same substance, the “Adrenal gland Left weight” value [4, 12] was 0.0098 ± 0.0014 g, the “Adrenal gland Right weight” value [4, 12] was 0.0098 ± 0.0014 g and the Brain weight [4, 12] was 0.6126 ± 0.02. For the same substance, the “Femur Left weight” value [4, 12] was 0.3335 ± 0.02 g, the “Femur Right weight” value [4, 12] was 0.3302 ± 0.02 g and the “Kidney: Left weight” value [4, 12] was 0.2977 ± 0.01 g. For the same substance, the “Kidney: Right weight” value [4, 12] was 0.2926 ± 0.02 g, the Liver weight [4, 12] was 2.5220 ± 0.15 g and the Pituitary weight [4, 12] was 4.3 ± 1 mg. It also gave a Spleen weight [4, 12] of 0.2056 ± 0.02 g, a Uterus weight [4, 12] of 0.0524 ± 0.02 g and a Vagina weight [4, 12] of 0.0665 ± 0.02 g. For the same substance, the “weights of the reproductive organs (uterus and vagina)” value ([4]; reduced by ovariectomy) was “not restored”, the “C-terminal telopeptide / CTx” value [5, 13] was “also reduced; also recorded: recovered to normal levels” and the “osteocalcin” value [5, 13] was “recovered to normal levels”. The C-terminal telopeptide [5, 14] was 4.340 ± 0.395^a ng/ml, the osteocalcin [5, 15] was 3.458 ± 0.254^ac ng/mL and the “bone growth marker ALP” value [6] was “recovered to a normal level”. For the same substance, the ALP [6, 16] was 108.5 ± 21.7 IU/l, the Albumin [6, 16] was 2.8 ± 0.1 g/dL and the BUN [6, 16] was 9.5 ± 2.3 mg/dL. The GOT [6, 16] was 158.0 ± 32.4 IU/l, the GPT [6, 16] was 20.4 ± 4.5 IU/l and the Glucose [6, 16] was 110.4 ± 8.7 mg/dL. For the same substance, the HDL [6, 16] was 22.8 ± 6.2 mg/dL, the LDL-C [6, 16] was 8.1 ± 4.2 mg/dL and the Phosphorus [6, 16] was 4.2 ± 0.3 mg/dL. The calcium [6, 16] was 6.8 ± 0.3 mg/dL, the “tumor growth (FIG. 4)” value ([7]; Colo205 xenograft mice) was “tumor growth was slowed down after 12 days” and the “tumor growth and size of tumor (FIG. 5)” value ([7]; Colo205 xenograft mice) was “tumor growth became dull and a size of tumor was reduced after 2 or 3 weeks from the dose”. The “MTV (n) Day 28” value ([7]; 0.83 mg/kg po) was 864 (10) mm^3, the “Deaths NTR” value ([7]; 0.83 mg/kg po) was 0 and the “% TGI” value [7] was 8%. For the same substance, the “Deaths TR” value ([7]; 0.83 mg/kg po) was 0, the “extension of survival versus control” value ([8]; 80 mg/kg orally 3 times per day, 83 versus 58 days) was 43% and the “survival after tumor inoculation” value ([8]; 80 mg/kg orally 3 times per day, control group survived 58 days) was 83 days. The “tumor growth (FIG. 8)” value ([8]; text result versus control group) was “stopped or at least became dull”.
